Laboratory results taken from patent US10004730B2, “Small molecules targeting androgen receptor nuclear localization and/or level in prostate cancer” (University of Pittsburgh-Of the Commonwealth System of …, priority 2011, dated 2018).

Tests used:
PC3 cells = test: BrdU incorporation, PC3; assay type: cell-based; conditions: PC3, up to 50 uM, 48 hrs
Method: (§1) FIGS. 14A-F. Effect of SID 3712502 at indicated concentrations on BrdU incorporation in cultured AR-positive LNCaP (FIG. 14A), C4-2 (FIG. 14B), 22Rv1 (FIG. 14C), LAPC4 (FIG. 14D) cells, and AR-negative DU145 (FIG. 14E) and PC3 (FIG. 14F) cells. Cells were plated in 12-well plates at 2,500 cell per well in RPMI 1640 complete medium. After 24 hrs, the cells were treated with SID 3712502 at the indicated concentrations for 48 hrs and BrdU incorporation was assayed according to manufacturer's instructions (Invitrogen BrdU staining kit; catalog #: 93-3943). The percentage of BrdU-positive cells was determined and then normalized to generate relative BrdU index. Ctrl=DMSO control.

C4-2 cells [1] = test: Cell survival, crystal violet staining, C4-2; assay type: cell-based; conditions: 48 hrs
Method: FIGS. 8A and 8B. Effect of SID 14730725 and SID 3712502 on survival of PC3 (FIG. 8A) and C4-2 cells (FIG. 8B). PC3 or C4-2 cells were plated in 12-well plates at 2,500 cell per well in RPMI 1640 complete medium. After 24 hrs, the cells were treated with SID 14730725 or SID 3712502 at the indicated concentrations for 48 hrs. The wells were washed with PBS thrice and fixed in 0.5% crystal Violet in methanol. C=control; treated with vehicle DMSO.

PSA = test: Western blot of AR target PSA in prostate cancer cells; assay type: cell-based
Method: (§2) FIGS. 10A and 10B. Down-regulation of the expression of AR and its downstream target PSA by SID 3712502 in C4-2 (FIG. 10A) and LNCaP (FIG. 10B) cells. Cells in RPMI 1640 complete medium were treated with SID 3712502 or vehicle DMSO at the indicated concentrations for 48 hrs. The cells were then harvested in RIPA buffer for Western blot analysis using antibodies for AR, PSA, and GAPDH. GAPDH was included as a loading control.
FIGS. 13A-C. Effect of SID 3712502 on the expression of AR and PSA in 22Rv1 (FIG. 13A) cells. […] The cells in RPMI 1640 complete medium were treated with SID 3712502 or vehicle DMSO at the indicated concentrations (uM) for 48 h. The cells were then harvested in RIPA buffer for Western blot analysis using antibodies for AR, PSA, and GAPDH. GAPDH was included as a loading control. FIG. 13B. SID 3712502 inhibits AR transactivation of PSA-luciferase reporter. C4-2 cells were transfected with PSA6.1-Luc, GFP-AR, and pRL-CMV and then treated with indicated doses of SID 3712502 for 24 hours. FIG. 13C. SID 3712502 inhibits transactivation of PSA-luciferase reporter by AR(1-665), which lacks LBD. […] For luciferase assays, cells were lysed with passive lysis buffer (Promega) and both Firefly and Renilla luciferase activities were read using a Dual-Luciferase Reporter Assay kit (Promega) on a LmaxII384 luminometer (Molecular Devices). […]

C4-2 cells [2] = test: BrdU incorporation, C4-2; assay type: cell-based; conditions: C4-2, 48 hrs
Method: as §1

[3] = tested on: C4-2, LNCaP, LAPC-4, PC3 and COS-1 cell lines; test: Cytotoxicity in a panel of cultured cell lines; assay type: cell-based
Method: The screen identified ˜30 candidate small molecules that can disrupt GFP-AR nuclear localization in the C4-2 stably-transfected cell line. They were tested further to verify they can indeed disrupt AR nuclear localization in C4-2 cells and to determine whether the inhibition of nuclear localization of GFP-AR is mediated through a general inhibition of nuclear import machinery. […] Also, the candidate small molecules were tested for their cytotoxicity using a panel of cultured cell lines.
Once the candidate small molecules were identified, they were tested if they indeed can inhibit androgen-independent nuclear localization of GFP-AR and endogenous AR in the C4-2 cells. Also, these agents were tested to see if they are cytotoxic in several different cell lines, including the AR-positive prostate cancer cell lines C4-2, LNCaP, LAPC-4 and AR-negative cell lines PC3 and COS-1 (FIG. 8). These assays led to the identification of 3 agents that specifically target androgen-independent AR nuclear localization in prostate cancer cells and have minimal cytotoxicity on other types of cells.

AR(1-665) = test: PSA-luciferase reporter, AR(1-665) lacking LBD, PC3 cells; assay type: cell-based; conditions: 10 μM, 24 hours
Method: FIGS. 13A-C. Effect of SID 3712502 on the expression of AR and PSA in 22Rv1 (FIG. 13A) cells. […] The cells in RPMI 1640 complete medium were treated with SID 3712502 or vehicle DMSO at the indicated concentrations (uM) for 48 h. The cells were then harvested in RIPA buffer for Western blot analysis using antibodies for AR, PSA, and GAPDH. GAPDH was included as a loading control. FIG. 13B. SID 3712502 inhibits AR transactivation of PSA-luciferase reporter. C4-2 cells were transfected with PSA6.1-Luc, GFP-AR, and pRL-CMV and then treated with indicated doses of SID 3712502 for 24 hours. FIG. 13C. SID 3712502 inhibits transactivation of PSA-luciferase reporter by AR(1-665), which lacks LBD. PC3 cells were transfected with GFP-NAR and PSA6.1 Luc overnight prior to treatment with 10 μM SID 3712502 (SID) or DMSO (C) for 24 hours. For luciferase assays, cells were lysed with passive lysis buffer (Promega) and both Firefly and Renilla luciferase activities were read using a Dual-Luciferase Reporter Assay kit (Promega) on a LmaxII384 luminometer (Molecular Devices). Firefly luciferase values were normalized to Renilla (pRL-CMV) or protein of cell lysates. Plotted values represent averaged normalized Firefly luciferase activities, each performed in triplicate, relative to DMSO control. One-way ANOVA was performed with a Bonferroni's Multiple Comparison posttest *** p<0.0001 (C). […]

AR = test: Western blot of AR protein in prostate cancer cells; assay type: cell-based; conditions: for endogenous AR level (degradation): 48 hrs
Method: as §2
FIGS. 13A-C. Effect of SID 3712502 on the expression of AR and PSA in 22Rv1 (FIG. 13A) cells. […] The cells in RPMI 1640 complete medium were treated with SID 3712502 or vehicle DMSO at the indicated concentrations (uM) for 48 h. The cells were then harvested in RIPA buffer for Western blot analysis using antibodies for AR, PSA, and GAPDH. GAPDH was included as a loading control. FIG. 13B. SID 3712502 inhibits AR transactivation of PSA-luciferase reporter. C4-2 cells were transfected with PSA6.1-Luc, GFP-AR, and pRL-CMV and then treated with indicated doses of SID 3712502 for 24 hours. FIG. 13C. SID 3712502 inhibits transactivation of PSA-luciferase reporter by AR(1-665), which lacks LBD. PC3 cells were transfected with GFP-NAR and PSA6.1 Luc overnight prior to treatment with 10 μM SID 3712502 (SID) or DMSO (C) for 24 hours. For luciferase assays, cells were lysed with passive lysis buffer (Promega) and both Firefly and Renilla luciferase activities were read using a Dual-Luciferase Reporter Assay kit (Promega) on a LmaxII384 luminometer (Molecular Devices). Firefly luciferase values were normalized to Renilla (pRL-CMV) or protein of cell lysates. Plotted values represent averaged normalized Firefly luciferase activities, each performed in triplicate, relative to DMSO control. One-way ANOVA was performed with a Bonferroni's Multiple Comparison posttest *** p<0.0001 (C). Student's t-test was performed; ***p=0.0002 (D).

22Rv1 cells = test: BrdU incorporation, 22Rv1; assay type: cell-based; conditions: 22Rv1, 48 hrs
Method: as §1

PC3 tumors = test: PC3 xenograft tumors in castrated SCID mice; assay type: in vivo; conditions: i.p. 25 mg/kg every other day
Method: FIGS. 15A-B. SID 3712502 inhibited the growth of castration resistant 22Rv1 xenograft tumors (FIG. 15A), but not PC3 tumors (FIG. 15B). 22Rv1 or PC3 tumors were established by s.c. injection of 1×10^6 cells into young adult male SCID mice. SCID mice were castrated and randomized when tumor volume reached ˜400 uL. Mice received i.p. delivery of SID 3712502 (25 mg/kg body weight) or vehicle control EPL every other day, beginning 4 days after castration (injection indicated by arrows). Each group consisted of 10 mice for 22Rv1, and 8 mice for PC3 tumors. Tumor volumes were measured using micro-calipers and calculated using the formula (length×width^2)/2. Black and red lines represent data from the animals treated with vehicle (C) and SID 3712502 (SID), respectively. P value was calculated using a two-way ANOVA with the Bonferrroni correction (GraphPad). Error bars=SEM. **p<0.01.

SMILES: Cc1cccc(N2CCN(C(=O)CSCc3c(C)noc3C)CC2)c1C [SID 3712502, 2-[(3,5-dimethyl-1,2-oxazol-4-yl)methylsulfanyl]-1-[4-(2,3-dimethylphenyl)piperazin-1-yl]ethanone]
- proliferation (BrdU incorporation) (PC3 cells): no detectable effect
- cytotoxicity (C4-2 cells [1]): little or no cytotoxicity
- AR-target gene PSA expression (PSA; 2 uM, 48 h, C4-2 and 22Rv1 cells): significantly inhibited
- PSA expression (PSA; LNCaP cells, 48 hrs): Down-regulation
- proliferation (BrdU incorporation) (C4-2 cells [2]): inhibited the proliferation
- cytotoxicity to various cultured cells [3]: little or no cytotoxicity
- transactivation activity of AR(1-665) (PSA-luciferase) (AR(1-665)): can inhibit the transactivation activity
- AR protein levels (AR; 10-50 uM, 48 h, C4-2 and 22Rv1 cells): inhibited AR protein levels
- endogenous AR level (degradation) (AR; C4-2 cells): can cause degradation of endogenous AR
- endogenous AR level (degradation) (AR; LNCaP cells): can cause degradation of endogenous AR
- proliferation (BrdU incorporation) (22Rv1 cells): inhibited the proliferation
- growth of AR-negative PC3 tumor (PC3 tumors): did not inhibit
